From ChEMBL document CHEMBL5241075, “Advancement of chimeric hybrid drugs to cure malaria infection: An overview with special emphasis on endoperoxide pharmacophores” (Eur J Med Chem, 2021)
≈ marks a conversion by molar mass, not a printed value.

Tests used:
Plasmodium falciparum [1] = assay: Antimalarial activity against chloroquine sensitive Plasmodium falciparum D6; type: functional, organism-based
Plasmodium falciparum [2] = assay: Antimalarial activity against erythrocytic stage chloroquine sensitive Plasmodium falciparum 3D7 infected in mouse assessed as reduction in parasitemia at 63 mg/kg/day, po qd measured after 4 days by Giemsa staining based analysis relative to control; type: functional; design: scale not given: the % may be the effect or the level left; details: time 4 day
Plasmodium falciparum [3] = assay: Antimalarial activity against chloroquine resistant Plasmodium falciparum W2; type: functional, organism-based
Plasmodium vinckei = assay: Antimalarial activity against chloroquine resistant Plasmodium vinckei infected in po dosed swiss mouse assessed as reduction in parasitemia; type: functional
Plasmodium falciparum [4] = assay: Antimalarial activity against chloroquine sensitive Plasmodium falciparum F32; type: functional, organism-based
[5] = tested on: Plasmodium vinckei petteri; assay: Antimalarial activity against chloroquine sensitive Plasmodium vinckei petteri infected in po dosed swiss mouse assessed as reduction in parasitemia; type: functional
Plasmodium falciparum [6] = assay: Antimalarial activity against chloroquine resistant Plasmodium falciparum FcM29 Cameron; type: functional, organism-based
Plasmodium falciparum [7] = assay: Antimalarial activity against erythrocytic stage chloroquine sensitive Plasmodium falciparum W2 infected in mouse assessed as reduction in parasitemia at 63 mg/kg/day, po qd measured after 4 days by Giemsa staining based analysis; type: functional; design: scale not given: the % may be the effect or the level left; details: time 4 day
Plasmodium falciparum [8] = assay: Antiplasmodial activity against chloroquine resistant Plasmodium falciparum by HRP2 ELISA analysis; type: functional, organism-based
Plasmodium falciparum [9] = assay: Antimalarial activity against chloroquine resistant Plasmodium falciparum PaloAlto; type: functional, organism-based
Plasmodium falciparum [10] = assay: Antimalarial activity against chloroquine resistant Plasmodium falciparum FcB1 Colombia; type: functional, organism-based
Plasmodium falciparum [11] = assay: Antimalarial activity against chloroquine resistant Plasmodium falciparum FcR3 Gambia; type: functional, organism-based
Plasmodium falciparum [12] = assay: Antimalarial activity against erythrocytic stage chloroquine sensitive Plasmodium falciparum W2 infected in mouse assessed as reduction in parasitemia at 32 mg/kg/day, po qd measured after 4 days by Giemsa staining based analysis relative to control; type: functional; design: scale not given: the % may be the effect or the level left; details: time 4 day
Plasmodium falciparum [13] = assay: Antiplasmodial activity against Plasmodium falciparum W2; type: functional, organism-based
Plasmodium falciparum [14] = assay: Antiplasmodial activity against Plasmodium falciparum 3D7; type: functional, organism-based
[15] = Inhibition of Plasmodium falciparum falcipain-2
Plasmodium falciparum [16] = assay: Antimalarial activity against erythrocytic stage chloroquine sensitive Plasmodium falciparum 3D7 infected in mouse assessed as reduction in parasitemia at 15 mg/kg/day, po qd measured after 4 days by Giemsa staining based analysis relative to control; type: functional; design: scale not given: the % may be the effect or the level left; details: time 4 day
[17] = tested on: Plasmodium yoelii nigeriensis; assay: Antiplasmodial activity against Plasmodium yoelii nigeriensis infected in sc dosed mouse assessed as reduction in parasitemia; type: functional
Plasmodium falciparum [18] = assay: Antimalarial activity against erythrocytic stage chloroquine sensitive Plasmodium falciparum W2 infected in mouse assessed as reduction in parasitemia at 43 mg/kg/day, po qd measured after 4 days by Giemsa staining based analysis relative to control; type: functional; design: scale not given: the % may be the effect or the level left; details: time 4 day
Plasmodium falciparum [19] = assay: Antimalarial activity against erythrocytic stage chloroquine sensitive Plasmodium falciparum 3D7 infected in mouse assessed as reduction in parasitemia at 43 mg/kg/day, po qd measured after 4 days by Giemsa staining based analysis relative to control; type: functional; design: scale not given: the % may be the effect or the level left; details: time 4 day
Plasmodium falciparum [20] = assay: Antiplasmodial activity against Plasmodium falciparum TM91C235; type: functional, organism-based
HeLa = assay: Antiproliferative activity against human HeLa cells assessed as cell growth inhibition; type: functional, cell-based; details: Homo sapiens, HeLa
Hemozoin = assay: Inhibition of Beta-hematin in Plasmodium falciparum
Plasmodium berghei [21] = assay: Antiplasmodial activity against Plasmodium berghei infected in mouse assessed as reduction in parasitemia at 35 microg/kg, sc measured after 4 days post treatment relative to control; type: functional; design: scale not given: the % may be the effect or the level left; details: dose 35 µg/kg, time 4 day
Plasmodium falciparum [22] = assay: Antiplasmodial activity against Plasmodium falciparum K1; type: functional, organism-based; details: Plasmodium falciparum, K1; read-out: EC50
Plasmodium berghei [23] = assay: Antiplasmodial activity against Plasmodium berghei infected in mouse assessed as reduction in parasitemia at 65 mg/kg, sc measured after 4 days post treatment relative to control; type: functional; design: scale not given: the % may be the effect or the level left; details: time 4 day
Plasmodium falciparum [24] = assay: Antiplasmodial activity against Plasmodium falciparum DD2; type: functional, organism-based
Plasmodium berghei [25] = assay: Antiplasmodial activity against Plasmodium berghei infected in mouse assessed as reduction in parasitemia by measuring survival rate at 35 microg/kg, sc measured after 41 days of post infection relative to control; type: functional; details: 984 h, dose 35 µg/kg, time 41 day
Plasmodium falciparum [26] = assay: Selectivity ratio of IC50 for antiplasmodial activity against Plasmodium falciparum W2 to IC50 for antiplasmodial activity against Plasmodium falciparum D6; type: functional
Plasmodium falciparum [27] = assay: Antiplasmodial activity against Plasmodium falciparum D6; type: functional, organism-based
Plasmodium falciparum [28] = assay: Antiplasmodial activity against Plasmodium falciparum; type: functional, organism-based
Plasmodium berghei [29] = assay: Antimalarial activity against Plasmodium berghei infected in mouse assessed as reduction in parasitemia; type: functional
[30] = Lipophilicity, logP of compound; type: physicochemical; details: octanol/water
Plasmodium yoelii = assay: Antimalarial activity against Plasmodium yoelii infected in mouse assessed as reduction in parasitemia; type: functional

## CC1(C)COC(C2CCC(NC3CCC(Nc4ccnc5cc(Cl)ccc45)CC3)CC2)OO1 (stereo unspecified)
Plasmodium falciparum [1]
  IC50: 7 nM
Plasmodium falciparum [2]
  Activity: 100%
Plasmodium falciparum [3]
  IC50: 15 nM
Plasmodium vinckei
  ED100: 30 mg/kg/day
Plasmodium falciparum [4]
  IC50: 13 nM
[5]
  ED100: 32 mg/kg/day
Plasmodium falciparum [6]
  IC50: 10 nM
Plasmodium falciparum [7]
  Activity: 96%
Plasmodium falciparum [8]
  IC50: 19.8 nM
  IC90: 29.3 nM
  IC99: 0.0448 µM
  MIC: 0.0472 µM (≈ 0.0224 µg/mL)
Plasmodium falciparum [9]
  IC50: 15 nM
Plasmodium falciparum [10]
  IC50: 24 nM
Plasmodium falciparum [11]
  IC50: 12 nM
Plasmodium falciparum [12]
  Activity: 77%

## CC(C)CN(NC(=O)C1CCC2(CC1)OOC1(OO2)C2CC3CC(C2)CC1C3)c1nc(C#N)ncc1Cl (stereo unspecified)
Plasmodium falciparum [13]
  IC50: 9.8 nM
Plasmodium falciparum [14]
  IC50: 9.8 nM
[15]
  IC50: 3.4 nM

## CCN(CC)CCCC(C)Nc1ccnc2cc(Cl)ccc12 (stereo unspecified) [CHLOROQUINE]
Plasmodium falciparum [16]
  Activity: 100%
Plasmodium falciparum [13]
  IC90: 18.6 nM
[17]
  CD50: 7 mg/kg/day
  CD90: 23 mg/kg/day
[17]; Plasmodium yoelii
  ED50: 5 mg/kg/day
  ED90: 23 mg/kg/day
Plasmodium vinckei
  ED100: >100 mg/kg/day
[5]
  ED100: 16 mg/kg/day
Plasmodium falciparum [18]
  Activity: 15%
Plasmodium falciparum [19]
  Activity: 100%
Plasmodium falciparum [20]
  IC90: 153 nM
HeLa
  IC50: 8540 nM
Plasmodium falciparum [8]
  IC90: 301 nM
  IC99: 0.531 µM
Hemozoin
  IC50: 1.91 equiv

## C[C@H]1[C@H](OC(=O)CCC(=O)CCNc2ccnc3cc(Cl)ccc23)O[C@@H]2O[C@]3(C)CC[C@H]4[C@H](C)CC[C@@H]1[C@@]24OO3
Plasmodium berghei [21]
  Activity: 95.2%
Plasmodium falciparum [22]
  EC50: 1.7 nM
Plasmodium berghei [23]
  Activity: >99%
Plasmodium falciparum [24]
  EC50: 2.3 nM
Plasmodium falciparum [14]; read-out: EC50
  EC50: 4.5 nM
Plasmodium berghei [25]
  survival at 0.035 mg/kg: 80%

## Cc1cccc(C)c1Nc1nc(OCc2cn(CCCNc3ccnc4cc(Cl)ccc34)nn2)nc(N(C)C)n1
Plasmodium falciparum [13]
  IC50: 730 nM
Plasmodium falciparum [26]
  Ratio IC50: >11.1
Plasmodium falciparum [27]
  IC50: 580 nM

## C[C@@H]1CC[C@H]2[C@@H](C)C(N3CCS(=O)(=O)CC3)O[C@@H]3O[C@]4(C)CC[C@@H]1[C@]32OO4 (stereo partly specified)
Plasmodium falciparum [28]
  EC50: 0.14 nM
  EC90: 2.55 nM
Plasmodium berghei [29]
  ED50: 1.5 mg/kg
[30]
  logP: 2.49
Plasmodium yoelii
  ED50: 3.9 mg/kg

## Cc1cccc(C)c1Nc1nc(OCc2cn(CCNc3ccnc4cc(Cl)ccc34)nn2)nc(N(C)C)n1
Plasmodium falciparum [13]
  IC50: 1690 nM
Plasmodium falciparum [26]
  Ratio IC50: >5.6
Plasmodium falciparum [27]
  IC50: 980 nM
